The source of these data is ChEMBL document CHEMBL3352736, “Synthesis and preliminary biological evaluation of new antiproliferative aromatic analogues of 1α,25-dihydroxyvitamin D3” (Eur J Med Chem, 2014).

Structures are written as SMILES.

This assay concerns HL-60. Briefly: […] of human HL60 cells incubated for 144 hrs by Wst-1 dye based assay. The note with it: HL-60, 144 h. The format is functional.

The term IC50 denotes the point on the concentration scale where inhibition reaches its midpoint. Low values mean greater potency in that assay, high ones weaker potency in that assay. `CC(C)CCC[C@@H](C)[C@H]1CC[C@H]2/C(=C/c3cccc(C(O)CCO)c3)CCC[C@]12C` (some centres not stated) registered an IC50 of 5.4 µM. `C[C@H](CCCC(C)(C)O)[C@H]1CC[C@H]2/C(=C/c3cccc(C(O)CCO)c3)CCC[C@]12C` (some centres not stated) showed an IC50 of 1.4 µM. For `C[C@H](CC#CC(C)(C)O)[C@H]1CC[C@H]2/C(=C/c3cccc(C(O)CCO)c3)CCC[C@]12C` (some centres not stated), the IC50 amounted to 7.8 µM. `CC(C)CCC[C@@H](C)[C@H]1CC[C@H]2/C(=C/c3ccc(CO)c(CO)c3)CCC[C@]12C` yielded an IC50 of 63.2 µM.

For `C[C@H](CC#CC(C)(C)O)[C@H]1CC[C@H]2/C(=C/c3ccc(CO)c(CO)c3)CCC[C@]12C`, the IC50 came to 0.6 µM. To `CC(C)CCC[C@@H](C)[C@H]1CC[C@H]2/C(=C/c3cccc(CO)c3CO)CCC[C@]12C` belongs 32.4 µM; to `C[C@H](CC#CC(C)(C)O)[C@H]1CC[C@H]2/C(=C/c3cccc(CO)c3CO)CCC[C@]12C`, greater than 100 µM.
